The record followed here is patent US20040192554A1, “Technique for effectively treating an agricultural product with a 1-substituted-cyclopropene” (priority 2003, published 2004).

Assay [1] has as its system apple (variety "Sansa") fruit. In words: Quality deterioration of apple (Sansa) fruit after storage, Example 5. Format: in vivo. As to conditions: 1 ppm, after storage 25 degrees C 2 weeks. How it is done:
Using an apple (variety “Sansa”) fruit (6 fruits were used per group) as an agricultural product, the following experiment was performed.
1) A fruit and 1-methylcyclopropene (concentration 1 ppm in a chamber) were placed into a sealed chamber, and contact-treated for 12 hours under a normal pressure.
2) A fruit was placed into a sealed chamber, and a pressure in the chamber was reduced to 25.0 kPa. Subsequently, 1-methylcyclopropene was placed therein to the concentration in the chamber of 1 ppm, and contact-treated for 1 minute under the reduced pressure (25.0 kPa).
The fruit which had been subjected to treatment of the above-mentioned 1) or 2) was stored at 25 degrees C for 2 weeks, and hardness of flesh, pH of a fruit juice which is an index for the content of an acid, and the ethylene concentration in a fruit core were measured. Contact treatment of the above-mentioned 1) or 2) was performed on the following day of harvesting a fruit. In addition, also regarding a fruit undergoing no treatment of 1) or 2) (non-treatment), similar storage was performed, and the above-mentioned index was measured. Further, regarding non-treated fruit, the above-mentioned index before storage was also measured. Different alpha characters in Table 4 indicate that a significant difference was recognized at a risk rate of 5% (multiple range test of Newman-Keuls).

For assay [2], the system named is apple (variety "Orin") fruit. The experiment in a line: Quality deterioration of apple (Orin) fruit after storage, Example 6. In kind it is in vivo. The conditions noted are these: 1 ppm, after storage 25 degrees C 3 weeks. How it is done:
Using an apple (variety “Orin”) fruit (6 fruits were used per group) as an agricultural product, the following experiment was performed.
1) A fruit and 1-methylcyclopropene (concentration 1 ppm in a chamber) were placed into a sealed chamber, and contact-treated for 16 hours under a normal pressure.
2) A fruit was placed into a sealed chamber, and a pressure in the chamber was reduced to 25.0 kPa. Subsequently, 1-methylcyclopropene was placed therein to the concentration in the chamber of 1 ppm, and contact-treated for 1 hour under the reduced pressure (25.0 kPa).
3) A fruit was placed into a sealed chamber. Subsequently, a pressure in the chamber was reduced to 25.0 kPa, and the fruit was kept in the chamber for 1 hour under the reduced pressure (25.0 kPa).
The fruit which had been subjected to treatment of the above-mentioned 1), 2) or 3) was stored at 25 degrees C for 3 weeks, and hardness of flesh and mealy of flesh were measured. In addition, treatments of the above-mentioned 1), 2) and 3) were performed regarding fruits which had been stored for about 1 month after harvesting of fruit. In addition, also regarding a fruit undergoing no treatment of 1), 2) or 3) (non-treatment), similar storage was performed, and the above-mentioned index was measured. Further, regarding non-treated fruit, the above-mentioned index before storage was also measured. Different alpha characters in Table 6 indicate that a significant difference was recognized at a risk rate of 5% (multiple range test of Newman-Keuls).

Setting [3] is: Reduced pressure (25.0 kPa) 1 minute.
[4] abbreviates: Reduced pressure (25.0 kPa) 1 hour.

Structures are written as SMILES.

For the molecule `CC1=CC1` [1-MCP, 1-methylcyclopropene], in assay [1] (Normal pressure 12 hours), the “Ethylene concentration in fruit core” value was found to be 1.86a μL/L, the Hardness of flesh is recorded as 61.05b N and the “pH of fruit juice” value came out at 3.38a. Moreover, in assay [1] (setting [3]), the “Ethylene concentration in fruit core” value stood at 0.97a μL/L, the Hardness of flesh is recorded as 63.21b N and the “pH of fruit juice” value is reported as 3.40a. Further, in assay [2] (Normal pressure 16 hours), the Hardness of flesh worked out at 42.06ab N and the Mealy of flesh result is “Slight”. In assay [2] (setting [4]), the Hardness of flesh is recorded as 44.02b N and the Mealy of flesh entry is recorded as “Slight”.
